Measured values from patent US11427605B2, “Crystalline forms of 5-chloro-N4-[-2-(dimethylphosphoryl) phenyl]-N2-{2-methoxy-4-[4-(4-methylpiperazin-1-yl) piperidin-1-yl] phenyl} pyrimidine-2,4-diamine” (ARIAD Pharmaceuticals, Inc., priority 2014, dated 2022).
Values belong to the compound of their own block, whether it stands above or below them.

How the values were obtained:
[1] = Variable humidity XRPD; assay type: physicochemical; details: 30° C.
Method: The temperature variation rate was 10° C./min.
The relative humidity was increased from the starting amount, brought up to the maximum, then dried back to the minimum value. The data collection time was 41 min at each step, time starting after equilibration of the relative humidity.
The peaks shifts were reversible at RH of about 30%. A sample of Form A was then exposed to 80% RH for 15 h. The peaks shifts had occurred after 90 min, and the extent of the shifts remained constant throughout the exposure at 80% RH for 15 h. Upon return to 10% RH, the peaks shifted to their original position. To investigate the amount of water adsorbed, a new sample of Form A was exposed for 2 h at 80% and a TGMS of this sample was measured.
For Form B, the relative humidity was measured at 30° C. The RH % values measured were 10, 30, 50, 60, 65, 70, 75, and 80%. […] At 80% RH the conversion to Form C was completed. Upon desorption, Form C dehydrates to Form B, starting at about 30% RH. At 10% RH the conversion to Form B was completed.
For Form C, a hydrate, the relative humidity was measured at 30° C. The experiment was performed starting at the maximum RH and dehydrated, then rehydrated back up to the maximum value. The RH % values measured were 10, 15, 20, 25, 30, 35, 40, 60, and 80%. Upon desorption, Form C dehydrated to Form B, starting at about 25% RH. At 10% RH, the conversion to Form B was complete. Upon sorption, Form B converted to Form C, starting at about 60% RH. At 80% RH the conversion to Form C was complete. The results are consistent with the corresponding experiments of Form B.
For Form D, a hydrate, the relative humidity was measured at 30° C. The experiment was performed starting at the maximum RH and dehydrated, then rehydrated back up to the maximum value. The RH % values measured were 10, 15, 20, 25, 30, 35, 40, 60, and 80%. […] Form C dehydrated to Form B, starting at about 20% RH. At 10% RH, the conversion to Form B was complete. Upon sorption, Form B converted to Form C, starting at about 40% RH. At 80% RH, the conversion to Form C was complete.

[2] = for Temperature at which (partial) conversion to Form A was observed / Temperature at which conversion to Form A was complete: sample started as the labelled form; for Temperature of dehydration to anhydrous Form B / Temperature of solid-solid transition to Form A: ambient humidity, increasing temperature; for Temperature of solid-solid transition to Form A: not reversible
Method: High resolution X-ray powder diffraction patterns disclosed herein were collected on a D8 Advance system in the Brag-Brentano geometry equipped with LynxEye solid state detector. The radiation used for collecting the data was CuKα1 (λ=1.54056 Å) monochromatized by germanium crystal. The patterns were collected in the range of 4-41.5°2θ, with a step in the range of 0.016 °2θ without further processing. All patterns were taken at room temperature, approximately 295 K. The material was placed in a boron glass capillary of 0.3 mm diameter. For variable humidity and variable temperature experiments disclosed herein, an ANSYCO HT chamber was used. The material was placed on a fixed sample holder that was mounted inside the chamber. The humidity was applied locally and varied from 10% to 80% (dew point). The temperature variation rate was 10° C./min.
Data was collected for Forms A, B, C, and D almost immediately after reaching the target temperature (within approximately 10 min).
For Form A, the temperatures used in the experiment were 25, 40, 60, 100, 120, 140, 150, 160, 170, 180, 190, and 200° C. Data collection lasted 20 min per temperature and the stabilization time in between was 10 min.
For Form B, the temperatures used in the experiment were 25, 40, 60, 100, 120, 140, 150, 155, 160, 165, 170, 180, and 190° C. Data collection lasted 45 min per temperature and the stabilization time in between was 10 min.
For Form C, the temperatures used in the experiment were 25, 40, 60, 70, 80, 100, 120, 140, 150, 155, 160, 165, 170, 175, 180, 190, and 200° C. Data collection lasted 40 min per temperature and the stabilization time in between was 10 min.
For Form D, the temperatures used in the experiment were 25, 35, 45, 55, 65, 75, 85, 100, 120, 140, 150, 155, 160, 165, 170, 175, 180, 190, and 200° C. Data collection lasted 10 min for temperatures 25-85° C. with a stabilization time of 1 min, and 40 min for temperatures 100-25° C. with a stabilization time of 10 min.

[3] = Dehydration of Forms C and D (drying); assay type: physicochemical
Method: In Table 25, a list of drying conditions for Form C are presented together with the final solid form.
In Table 26, a list of drying processes of Form D are presented. Form D under 5 mbar pressure and at 60° C. led to the formation of Form B after 24 h. In some instances, small quantities of Form C were visible on the XRPD patterns, even after 5 days of drying. This observation could be attributed to different particle morphology (fine particles vs. agglomerates/aggregates). […] In general, depending on the time and pressure, Forms B and C occur.

[4] = Remeasurement by XRPD after storage at ambient conditions; assay type: physicochemical
Method: For each experiment, the anti-solvent was added to each solvent vial, with a solvent to anti-solvent ratio of 1:0.25. In the cases where no precipitation occurred, this ratio was increased to 1:1, and if again no precipitation occurred the ratio was increased to 1:4, with a waiting time of 60 minutes between the additions (up to the third addition) and 35 minutes between the third addition and fourth addition. When no crystallization occurred or not enough solids precipitated for separation, samples were kept at 5° C. for 17 hours. The precipitated solids were separated from the liquids by centrifugation and decantation. When decantation could not be applied, the liquid was carefully removed using Pasteur's pipettes. The solids were dried at 200 mbar for 17 hours and analyzed by XRPD and digital imaging. In the cases where no precipitation occurred, the solvents were evaporated at 200 mbar for 17 hours prior to lowering the vacuum to 5 mbar. All obtained solids were analyzed by XRPD and digital imaging. The measuring plates containing the final solid were stored at ambient temperature for 5 weeks. The solid form was assessed again by XRPD. The arrows in Table 18 indicate if the form changed during storage.
A total of 68 slurry experiments were performed with brigatinib both at room temperature (20° C.) and 40° C., using 34 solvents. In all cases, a solvent volume of 250 μL was used. The slurries were stirred for two weeks. At the end of the slurry time, the vials were centrifuged and solids and mother liquids separated. The solids were analyzed wet and dry by XRPD and digital imaging. The measuring plates were then stored at ambient conditions for 3-4 weeks and another XRPD was obtained of the solid, any form change is shown by an arrow.
After completion of the cycling program, the solids were separated from the mother liquids by centrifugation, dried under 200 mbar for 48 hours (2-ethoxyethanol for 283 hours) and analyzed by XRPD and digital imaging. For the applied crystallization conditions and corresponding obtained solid forms, see Table 24. Solid form (or mixture) following the arrow (→) was obtained upon remeasurement by XRPD after storage of the measuring plates at ambient conditions for 5 weeks.
In Table 27, the occurrence of solid forms of brigatinib is given, together with the crystallization methods from which they crystallized and the related solvents. The table provides the results of over 600 experiments with solid forms measured by XRPD wet and/or dry (wet and dry count as separate experiments). In eight cases, no form assignment was made due to low yield. The solid form(s) following the arrow was/were obtained upon remeasurement by XRPD after storage of the measuring plates at ambient conditions for several weeks (2-5 weeks).

[5] = Vapor diffusion onto solids experiments; assay type: physicochemical; details: room temperature, two weeks
Method: For the 34 vapor diffusion onto solids experiments, amorphous brigatinib was prepared by grinding the starting material for 4 hours. The vials containing the amorphous brigatinib were left open and placed in closed 40 mL vials containing 2 mL of solvent (see Table 21). The amorphous brigatinib was exposed to solvent vapors at room temperature for two weeks. At the end of the experiment time, the solids were harvested wet and dry and analyzed by XRPD and digital imaging. For the applied crystallization conditions and corresponding obtained solid forms see Table 22.

[6] = sample started as the labelled form

- RH at which Form B starts to convert to hydrated Form C (sorption) [1, 6]: about 40 % RH
- RH at which Form C starts to dehydrate to Form B (desorption) [1, 6]: about 20 % RH
- RH at which conversion to Form B was complete (desorption) [1, 6]: 10 % RH
- RH at which conversion to Form C was complete (sorption) [1, 6]: 80 % RH
- Solid form at first measurements ([1]; 80% RH, freshly prepared Form D): already partially transformed to Form C
- Temperature at which Form D had converted (partially) to hydrated Form C ([2]; VT-XRPD): 35 °C
- Temperature at which Form D had converted to dehydrated Form B ([2]; VT-XRPD): 45 °C
- Temperatures at which the form is unstable ([2]; VT-XRPD): higher than 25 °C
- Temperature at which (partial) conversion to Form A was observed ([2]; VT-XRPD): 120 °C
- Temperature at which conversion to Form A was complete ([2]; VT-XRPD): 150 °C
- Temperature of dehydration to anhydrous Form B [2]: about 40 °C
- Temperature of solid-solid transition to Form A [2]: about 150 °C
- final solid form after drying ([3]; 5 mbar, 60° C., 24 h): Form B
- final solid form after drying ([3]; 50 mbar, 60° C., 86 h): mixture of Forms B+C
- final solid form after drying ([3]; 50 mbar, 60° C., 110 h): Form B
- final solid form after drying ([3]; 15 h at 60° C., 5 mbar): C + D
- final solid form after drying ([3]; 20 h (RT), 5 mbar): B + C
- final solid form after drying ([3]; 20 h at 60° C., 5 mbar): B + C
- final solid form after drying ([3]; 28 h at 60° C., 5 mbar): B + C
- final solid form after drying ([3]; 65 h at 60° C., 50 mbar): B + C
- final solid form after drying ([3]; 86 h at 60° C., 50 mbar): B + C
- final solid form after drying ([3]; 5 days at 60° C., 5 mbar): B + C
- final solid form after drying ([3]; 8 days, closed vial at RT, ambient pressure): B + C
Compound: COc1cc(N2CCC(N3CCN(C)CC3)CC2)ccc1Nc1ncc(Cl)c(Nc2ccccc2P(C)(C)=O)n1 [Form D, brigatinib]

- RH at which Form B starts to convert to hydrated Form C (sorption) [1, 6]: about 60 % RH
- RH at which conversion to Form B was complete (desorption) [1, 6]: 10 % RH
- RH at which conversion to Form C was complete (sorption) [1, 6]: 80 % RH
- Temperatures at which the form is unstable ([2]; VT-XRPD): higher than 25 °C
- Temperature at which (partial) conversion to Form A was observed ([2]; VT-XRPD): 120 °C
- Temperature at which conversion to Form A was complete ([2]; VT-XRPD): 155 °C
- Temperature of dehydration to anhydrous Form B [2]: about 40 °C
- Temperature of solid-solid transition to Form A [2]: about 150 °C
- final solid form after drying ([3]; 30° C., 1.5 h, ambient pressure): appears to be stable
- final solid form after drying ([3]; 40° C., 1 h, ambient pressure): converted to Form B
Compound: COc1cc(N2CCC(N3CCN(C)CC3)CC2)ccc1Nc1ncc(Cl)c(Nc2ccccc2P(C)(C)=O)n1 [Form C, brigatinib]

- Solid form after storage (XRPD) ([4]; ambient conditions for 1-3 weeks): had partially transformed to Form A
Compound: COc1cc(N2CCC(N3CCN(C)CC3)CC2)ccc1Nc1ncc(Cl)c(Nc2ccccc2P(C)(C)=O)n1 [Form H, brigatinib]

- Solid form after storage (XRPD) ([4]; mixtures A+L, ambient conditions for 3 weeks): still a mixture of A+L
Compound: COc1cc(N2CCC(N3CCN(C)CC3)CC2)ccc1Nc1ncc(Cl)c(Nc2ccccc2P(C)(C)=O)n1 [A+L, brigatinib]

- Solid form after storage (XRPD) ([4]; mixture of Forms A+K, ambient conditions for 3 weeks): still a mixture of Forms A+K
Compound: COc1cc(N2CCC(N3CCN(C)CC3)CC2)ccc1Nc1ncc(Cl)c(Nc2ccccc2P(C)(C)=O)n1 [Forms A+K, brigatinib]

- Solid form after storage (XRPD) ([4]; mixture of Forms A+J, ambient conditions for 3 weeks): still a mixture of Forms A+J
Compound: COc1cc(N2CCC(N3CCN(C)CC3)CC2)ccc1Nc1ncc(Cl)c(Nc2ccccc2P(C)(C)=O)n1 [Forms A+J, brigatinib]

- Solid form after storage (XRPD) ([4]; several weeks at ambient temperature): may revert to Form A
Compound: COc1cc(N2CCC(N3CCN(C)CC3)CC2)ccc1Nc1ncc(Cl)c(Nc2ccccc2P(C)(C)=O)n1 [Form E, brigatinib]

- Form dry (XRPD) ([5]; Chloroform vapors, no solids after 2 weeks): A + Am
- Form dry (XRPD) ([5]; Dichloromethane vapors, no solids after 2 weeks): Am
- Form dry (XRPD) ([5]; Water vapors): A + B + C
Compound: COc1cc(N2CCC(N3CCN(C)CC3)CC2)ccc1Nc1ncc(Cl)c(Nc2ccccc2P(C)(C)=O)n1 [amorphous brigatinib]

- Solid form after storage (XRPD) ([4]; heating or storage at ambient conditions for 8 weeks): desolvated to give Form A
Compound: COc1cc(N2CCC(N3CCN(C)CC3)CC2)ccc1Nc1ncc(Cl)c(Nc2ccccc2P(C)(C)=O)n1 [Form F, brigatinib]

- Solid form after storage (XRPD) ([4]; ambient conditions for 5 weeks): had transformed to Form A
Compound: COc1cc(N2CCC(N3CCN(C)CC3)CC2)ccc1Nc1ncc(Cl)c(Nc2ccccc2P(C)(C)=O)n1 [Form G, brigatinib]
